Measurements from PubChem BioAssay AID1949 (Southern Research Institute, 2009).
Converted amounts (≈) assume the structure as drawn. Records with an inconclusive call do not appear. The source made the active and inactive calls. How the calls were made is not given here.

Tested on: M. tuberculosis H37Rv growth inhibition
Assay: Confirmatory growth inhibition assay against Mycobacterium tuberculosis H37Rv, potency (AID 1949);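 further: bacteria grown 7 days with compound before Alamar blue readout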

SMILES | IC50
Cc1ccc(NC(=O)C(Cl)Cl)cc1[N+](=O)[O-] | 2.18 µg/mL (≈ 8.29 µM)
CCOC(=O)COc1ccc(S(=O)(=O)Nc2cccc(Cl)c2C)cc1 | 3.03 µg/mL (≈ 7.89 µM)
COC(=O)CSc1nnc(-c2ccccc2C)o1 | 4.38 µg/mL (≈ 16.6 µM)
COc1ccc(CCNC(=O)c2ccc(C#CC(C)(C)O)s2)cc1 | < 0.1 µg/mL
Cc1ccc(-c2nnc(SCC(=O)Nc3ccc([N+](=O)[O-])cc3)o2)cc1 | > 50 µg/mL (inactive)
Cc1cccc(N2CCN(C(=O)c3ccc(-c4ccccc4)cc3)CC2)c1C | 2.34 µg/mL (≈ 6.32 µM)
Cc1ccc(Sc2ccc(C=O)o2)cc1 | 2.15 µg/mL (≈ 9.85 µM)
CCCOc1ccc(C(=O)NC(=S)Nc2ccc(C(=O)O)cc2)cc1 | 0.12 µg/mL (≈ 0.335 µM)
O=[N+]([O-])c1ccc(NCCNc2nc(N3CCCC3)nc3ccccc23)cc1 | 1.06 µg/mL (≈ 2.8 µM)
CCc1c(C)sc(NC(=S)N2CCN(CC)CC2)c1C(=O)OC | 16.3 µg/mL (≈ 45.8 µM)
CCOC(=O)CSC1=C(C#N)C(c2ccccc2[N+](=O)[O-])C(C(C)=O)=C(C)N1 (stereo not given) | 1.41 µg/mL (≈ 3.51 µM)
O=C(CSc1nc2ccccc2c(=O)[nH]1)NCc1ccccc1 | 0.28 µg/mL (≈ 0.86 µM)
COC(=O)COc1ccc(NC(=O)c2ccccc2F)cc1 | 0.65 µg/mL (≈ 2.14 µM)
COc1ccc(CNc2ccc3c(c2)ncn3-c2ccccc2)cc1OC | 8.63 µg/mL (≈ 24 µM)
CCOC(=O)c1ccc(NC(=S)NC(NC(=O)c2ccc(Br)cc2)C(Cl)(Cl)Cl)cc1 (stereo not given) | 6.15 µg/mL (≈ 11.1 µM)
CN(c1ccccc1)c1ccc([N+](=O)[O-])c2nonc12 | < 0.1 µg/mL
O=C1C(Cl)=C(c2ccc(Cl)cc2)C(=O)N1c1ccc(Cl)cc1 | > 50 µg/mL (inactive)
CC(C)(C)c1ccc(C(=O)NC(=S)NCc2ccco2)cc1 | 2.16 µg/mL (≈ 6.83 µM)
O=C(Oc1ccccc1)c1cccc2cccnc12 | 0.99 µg/mL (≈ 3.97 µM)
Cc1c(C(=O)c2ccccc2)sc2nc(-c3ccccc3)nc(N)c12 | 7.76 µg/mL (≈ 22.5 µM)
Cc1ccccc1OCCCCn1cnc2ccccc21 | 6.34 µg/mL (≈ 22.6 µM)
N#Cc1ccc(NC(=O)CSc2ccc(Cl)cc2)cc1 | 2.94 µg/mL (≈ 9.71 µM)

SMILES | IC50
CCc1ccc(-c2nn(-c3ccccc3)cc2CO)cc1 | 5.36 µg/mL (≈ 19.3 µM)
CCOc1ccc(Nc2nc(NCc3ccco3)c3ccccc3n2)cc1 | 1.36 µg/mL (≈ 3.77 µM)
CSc1nc(C)cc(OCC(=O)Nc2ccc(Cl)cc2)n1 | 6.69 µg/mL (≈ 20.7 µM)
CCOC(=O)c1c(NC(=O)COc2ccc(C(C)C)cc2)sc2c1CCC2 | 2.77 µg/mL (≈ 7.15 µM)
N#Cc1c(NC(=S)NC(=O)C2CCCC2)sc2c1CCCC2 | 28.4 µg/mL (≈ 85.2 µM)
CC(NCC(O)COc1ccccc1C(C)(C)C)c1ccccc1 (stereo not given) | 2.55 µg/mL (≈ 7.79 µM)
COCCNCCCCOc1ccc(Cl)cc1C(C)(C)C | 4.62 µg/mL (≈ 14.7 µM)
CC1(C)Cc2c(sc3nc(SCC(=O)Nc4ccc(Br)cc4)nc(N)c23)CS1 | 6.22 µg/mL (≈ 12.6 µM)
O=[N+]([O-])c1ccc(NCCNc2nc3ccccc3nc2N2CCOCC2)cc1 | 1.64 µg/mL (≈ 4.16 µM)
O=C(Nc1ncnc2sc3c(c12)CCCC3)c1ccc(F)cc1 | 0.52 µg/mL (≈ 1.59 µM)
CC1=NN(c2nc(-c3ccc(Cl)cc3)cs2)C(=O)C1C (stereo not given) | 2.07 µg/mL (≈ 6.77 µM)
CCn1nnc(NC(=O)COc2ccc(C3CCCCC3)cc2)n1 | 2.04 µg/mL (≈ 6.19 µM)
O=C(CCN1CCC(c2ccccc2)C1)c1ccco1 (stereo not given) | > 50 µg/mL (inactive)
O=c1c2ccccc2nc(/C=C/c2ccc(Br)cc2)n1-c1ccc(O)cc1 | > 50 µg/mL (inactive)
CC(C)C(=O)Nc1ccc(C(=O)Oc2ccccc2)c(O)c1 | < 0.1 µg/mL
O=C(NCc1cccc(C(F)(F)F)c1)Nc1cccc(Cl)c1 | 5.93 µg/mL (≈ 18 µM)
COC(=O)COc1ccc2c(=O)c(Oc3cnn(-c4ccccc4)c3)c(C)oc2c1 | 3.89 µg/mL (≈ 9.57 µM)
COCCNS(=O)(=O)c1ccc(-c2ccc(C)cc2)cc1 | 0.49 µg/mL (≈ 1.6 µM)
O=C(CC12CC3CC(CC(C3)C1)C2)Nc1ccc2ccccc2c1 | < 0.1 µg/mL
CC1=NN(c2nc3ccccc3s2)C(=O)C1Cc1cccc2ccccc12 (stereo not given) | 0.3 µg/mL (≈ 0.808 µM)
Cc1nc2cc(NCc3cccc([N+](=O)[O-])c3)ccc2n1Cc1ccccc1 | 5.75 µg/mL (≈ 15.4 µM)
Clc1ccc(CN2CCN(c3ncnc4scc(-c5cccs5)c34)CC2)cc1 | 20.5 µg/mL (≈ 48.1 µM)

SMILES | IC50
COc1ccc(OC)c(NC(=O)Nc2ccc(Cl)c(C(F)(F)F)c2)c1 | 1.72 µg/mL (≈ 4.59 µM)
COc1ccc(NC(=O)c2ccccc2Oc2ccccc2)c(OC)c1 | < 0.1 µg/mL
COc1ccc(Cc2nnc(SCC(=O)NCCc3ccccc3)o2)cc1 | < 0.1 µg/mL
CC(Nc1nc(N2CCCCC2)nc2ccccc12)c1ccccc1 (stereo not given) | 2.29 µg/mL (≈ 6.89 µM)
Cc1ccc(-c2noc(CNc3cccc(Cl)c3)n2)cc1 | 13.9 µg/mL (≈ 46.4 µM)
COC(=O)C(C)Oc1ccc2c(=O)c(Oc3ccccc3Br)coc2c1 (stereo not given) | 2.96 µg/mL (≈ 7.06 µM)
Cc1c(Cl)cccc1NC(=O)c1ccc(OC(C)C(=O)OC2CCCCC2)cc1 (stereo not given) | < 0.1 µg/mL
Cc1ccccc1/C=C/c1ccc2cccc(O)c2n1 | < 0.1 µg/mL
C=CCN(CC=C)C(=S)NC(=O)c1ccc(F)cc1 | 0.81 µg/mL (≈ 2.91 µM)
C1=C(c2ccc(Oc3ccccc3)cc2)N2CCN=C2S1 | 5.23 µg/mL (≈ 17.8 µM)
CCCNc1nc(Nc2ccc(C)cc2)nc(N2CCOCC2)n1 | 7.71 µg/mL (≈ 23.5 µM)
CCC(=O)NC(=S)Nc1ccc(NC(=O)c2cc(I)ccc2Cl)cc1 | 0.43 µg/mL (≈ 0.882 µM)
O=C(CCNc1cccc(Cl)c1)c1ccco1 | 3.68 µg/mL (≈ 14.7 µM)
Cc1ccc(SC(C)C(=O)Nc2ccc(Cl)c(Cl)c2)cc1 (stereo not given) | 12.3 µg/mL (≈ 36.1 µM)
CCOC(=O)COc1ccc(C(=O)NC2CCCCC2)cc1 | 1.09 µg/mL (≈ 3.57 µM)
Cc1ccc(Nc2ccc(-n3ccnc3)nn2)cc1Cl | 2.67 µg/mL (≈ 9.34 µM)
CCCCNCCCCCOc1ccc(Cl)cc1Cl | 4.18 µg/mL (≈ 13.7 µM)
OC(CN1CCN(C(c2ccccc2)c2ccccc2)CC1)Cn1c2ccccc2c2ccccc21 (stereo not given) | 10.7 µg/mL (≈ 22.5 µM)
COc1ccccc1C(=O)NNC(=S)NC(=O)c1cccs1 | 0.15 µg/mL (≈ 0.447 µM)
O=[N+]([O-])c1ccc(-c2[nH]c(-c3cccs3)nc2-c2ccccc2)cc1 | 2.86 µg/mL (≈ 8.23 µM)
N#Cc1cc(Oc2ccc(OCc3ccccc3)cc2)c([N+](=O)[O-])cc1C#N | < 0.1 µg/mL
O=C(CSc1nnc(SCc2cccc3ccccc23)s1)Nc1ccccc1F | 1.45 µg/mL (≈ 3.28 µM)

SMILES | IC50
CCOC(=O)c1ccc(NC(=S)Nc2cccc([N+](=O)[O-])c2)cc1 | 0.23 µg/mL (≈ 0.666 µM)
Oc1ccccc1-c1n[nH]c(/C=C/c2ccc(Cl)cc2)n1 | 2.73 µg/mL (≈ 9.17 µM)
COc1cc(C(=O)Oc2ccc3c(c2)CCCC3)cc(OC)c1OC | > 50 µg/mL (inactive)
CCOC(=O)C(C)n1cnc2scc(-c3ccc(CC)cc3)c2c1=O (stereo not given) | 3.9 µg/mL (≈ 10.9 µM)
O=C(CCc1ccccc1)NC1C2CC3CC(C2)CC1C3 (stereo not given) | 3.08 µg/mL (≈ 10.9 µM)
Clc1ccc(OCCCn2ccnc2)cc1Cl | 3.98 µg/mL (≈ 14.7 µM)
COC(=O)COc1ccc2c(=O)c(-c3ccccc3Cl)coc2c1 | 0.4 µg/mL (≈ 1.16 µM)
COC(=O)C(C)Oc1ccc2c(=O)c(Oc3ccccc3Cl)coc2c1 (stereo not given) | 8.57 µg/mL (≈ 22.9 µM)
O=C(c1cccc([N+](=O)[O-])c1)N1N=C(c2ccc(Br)cc2)CC1(O)C(F)(F)F (stereo not given) | 2.13 µg/mL (≈ 4.65 µM)
CCCCC(=O)NC(=S)NNC(=O)c1ccc(C)c(Br)c1 | 2.79 µg/mL (≈ 7.49 µM)
COCCNc1nc(-c2ccc(Cl)cc2)nc2ccccc12 | > 50 µg/mL (inactive)
COC(=O)COc1ccc(NC(=O)c2ccccc2I)cc1 | 0.62 µg/mL (≈ 1.51 µM)
COC(=O)C1=C(C)NC2=C(C(=O)CC(c3ccc(F)cc3)C2)C1c1ccccc1Cl (stereo not given) | 3.64 µg/mL (≈ 8.55 µM)
O=C(CS(=O)(=O)c1ccc2ccccc2c1)Nc1ccccc1Cl | 4.48 µg/mL (≈ 12.5 µM)
CCOC(=O)COc1ccc(S(=O)(=O)Nc2c(C)cccc2CC)cc1 | 0.33 µg/mL (≈ 0.874 µM)
O=C(Nc1ccc(OC(F)(F)F)cc1)Nc1cccc([N+](=O)[O-])c1 | 0.19 µg/mL (≈ 0.557 µM)
CCOC(=O)c1cc(-c2ccccc2)sc1NC(=S)NC1CCN(Cc2ccccc2)CC1 | 0.77 µg/mL (≈ 1.61 µM)
O=C(CSc1nnc(-c2ccccc2Cl)o1)Nc1ccccn1 | > 50 µg/mL (inactive)
COc1cc(/C=C/[N+](=O)[O-])cc(Cl)c1OCc1ccccc1C#N | 17.9 µg/mL (≈ 51.8 µM)
